Data on two compounds can be found in paper PMC7956643, “Synthesis of Novel Pyrido[1,2-c]pyrimidine Derivatives with 6-Fluoro-3-(4-piperidynyl)-1,2-benzisoxazole Moiety as Potential SSRI and 5-HT1A Receptor Ligands” (International Journal of Molecular Sciences, 2021).

SMILES strings stand for the structures. Entries after “also recorded” stand apart in the source; their conditions may differ.

For one series, the system named is CD-1 mice. Description: Forced swim test in mice. Format: in vivo. The conditions noted are these: administered 30 min before test. As for the experimental part:
All studies were performed according to the guidelines of the European Community Council (Directive 86/609/EEC) and were approved by the Ethical Committee of the Institute of Pharmacology (88/2016, 05/31/2016). The experiments were performed on male CD-1 mice (23–40 g). The animals were kept at room temperature (21 ± 2 °C) on a natural day-night cycle (March–October) and housed under standard laboratory conditions. They had free access to food and tap water before the experiment. Each experimental group consisted of 6–8 animals/dose. All the animals were used only once. 8-Hydroxy-2-(di-n-propylamino)tetralin hydro-bromide (8-OH-DPAT, Research Biochemical Inc.) was used as aqueous solution. Compounds 6a and 7g were suspended in a 10% aqueous solution of dimethyl sulphoxide (DMSO). Vehicle group was administered as 10% aqueous solution of dimethyl sulphoxide (DMSO). […] The obtained data were analyzed by Dunnett’s test (one drug administration) or by the Newman–Keuls test (two drugs administrations). Forced swim test: the obtained data was evaluated by one-way analysis of variance (ANOVA) followed by the Dunnett’s multiple comparisons test: p < 0.05 was considered significant.
The forced swim test (FST) was carried out according to the method of Porsolt at al.. […] After the first 2 min adaptation period, the total duration of immobility was measured during the last 4 min test. […]

A short description of series [1]: Metabolic stability in pooled human liver microsomes. Format: in vitro ADME. As to conditions: pH 7.4, pooled HLMs 1 mg/mL, NADPH, 1 µM compound, 37 °C. As for the experimental part: Stock solutions of studied compounds were prepared at concentration of 100 µM in 1:1 acetonitrile/water mixture. Incubation mixes consisted 1 μM of a studied compound, 100 µM of NADPH in phosphate buffer and 1 mg/mL of pooled HLMs (Sigma-Aldrich, St. Louis, MO, USA) in potassium phosphate buffer (0.1 M, pH 7.4). Incubation was carried out in 96-well plates at 37 °C. Incubation mixtures (excluding compound solution) were subjected to 5 min preincubations, and started by addition of 10 µL of compound stock solution. After 0, 5, 10, 15, and 30 min, 25 µL samples of incubation reaction were added to the equal volume of ice-cold acetonitrile containing 1 µM of IS (buspirone hydrochloride). Control incubations were performed without NADPH to assess possible chemical instability. All samples were immediately centrifuged (10 min, 10,000 rpm) and the resulting supernatant was directly subjected to LC-MS analysis.
LC-MS analysis was performed on an Agilent 1260 system coupled to SingleQuad 6120 mass spectrometer (Agilent Technologies, Santa Clara, CA, USA). A Poroshell C18 EC120 column (3.0 × 100 mm^2, 2.7 μm, Agilent Technologies, Santa Clara, CA, USA) was used in reversed-phase mode with gradient elution starting with 90% of phase A (0.1% formic acid in deionised water) and 10% of phase B (0.1% formic acid in acetonitrile). […]

For another series, the target named is T1, 5-HT2A receptors (Homo sapiens, UniProt P28223).
T1 construct: expressed in transfected cells
Description: 5-HT2A radioligand binding assay. As to conditions: [3H]-ketanserin; HEK293 cells, human receptor. As for the experimental part:
In vitro radioligand binding assays for 5-HT2A, 5-HT6, 5-HT7 and D2 receptors were carried out using methods published by Zajdel et al.. For the assays, HEK293 cell cultures stably expressing the investigated human receptors were used. Cell pellets were thawed and homogenized in 20 vol of assay buffer using an Ultra Turrax tissue homogenizer, then centrifuged twice at 35000 g for 20 min at 4 °C, with incubation for 15 min at 37 °C in between. The composition of the assay buffers was as follows: for 5-HT2A receptors—50 mM Tris-HCl, 0.1 mM EDTA, 4 mM MgCl2 and 0.1% ascorbate; for 5-HT6 receptors—50 mM Tris-HCl, 0.5 mM EDTA, 4 mM MgCl2; for 5-HT7 receptors—50 mM Tris-HCl, 4 mM MgCl2, 10 µM pargyline and 0.1% ascorbate; for D2 receptors—50 mM Tris-HCl, 1 mM EDTA, 4 mM MgCl2, 120 mM NaCl, 5 mM KCl, 1.5 mM CaCl2 and 0.1% ascorbate. […] The process of equilibration was terminated by rapid filtration through Unifilter plates with a 96-well cell harvester, and radioactivity retained on the filters was quantified on a Microbeta plate reader (PerkinElmer, USA). For displacement studies, the assay samples contained as radioligands (PerkinElmer): 2 nM [^3H]-ketanserin (spec. act. 53.4 Ci/mmol) for 5-HT2A receptors; 2 nM [^3H]-LSD (spec. act. 83.6 Ci/mmol) for 5-HT6 receptors; 0.6 nM [^3H]-5-CT (spec. act. 39.2 Ci/mmol) for 5-HT7 receptors and [^3H]-raclopride (spec. act. 76.0 Ci/mmol) for D2 receptors. […] Each compound was tested in triplicate at 7–8 concentrations (10^-11-10^-4 M). The inhibition constants (Ki) were calculated from the Cheng–Prusoff equation [46]. Results were expressed as means of at least two separate experiments.

T1 sequence (P28223 whole entry): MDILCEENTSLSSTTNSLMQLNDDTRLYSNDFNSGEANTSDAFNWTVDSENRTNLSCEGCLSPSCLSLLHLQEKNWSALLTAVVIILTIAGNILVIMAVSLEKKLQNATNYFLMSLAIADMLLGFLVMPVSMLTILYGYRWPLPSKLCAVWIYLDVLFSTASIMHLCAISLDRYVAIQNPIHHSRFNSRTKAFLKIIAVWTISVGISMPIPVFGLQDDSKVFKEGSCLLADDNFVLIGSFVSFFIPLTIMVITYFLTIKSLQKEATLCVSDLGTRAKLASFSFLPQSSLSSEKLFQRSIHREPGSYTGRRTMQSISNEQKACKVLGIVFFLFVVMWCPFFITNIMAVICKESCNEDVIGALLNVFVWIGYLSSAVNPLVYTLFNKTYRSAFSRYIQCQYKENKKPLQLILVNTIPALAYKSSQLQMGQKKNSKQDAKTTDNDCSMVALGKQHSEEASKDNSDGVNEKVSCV

Take `O=c1c(-c2ccccc2)c2ccccn2c(=O)n1CCCCN1CCC(c2noc3cc(F)ccc23)CC1` [Compound 6a, 4-Phenyl-2-{4-[4-(6-fluoro-1,2-benzoxazol-3-yl)-1-piperidyl]butyl}-pyrido[1,2-c]pyrimidine-1,3-dione]: in the series on CD-1 mice, the “Effect in the forced swimming test” value was “inactivity; also recorded: ineffective”. Further, in series [1], the half-life at 1 µM was 3.61 min. The same compound showed an inhibition constant (Ki) at 5-HT2A receptors of 0.017 ± 0.003 µM.

`O=c1c(-c2ccccc2Cl)c2ccccn2c(=O)n1CCCCN1CCC(c2noc3cc(F)ccc23)CC1` [Compound 6d, 4-(2-Chlorophenyl)-2-{4-[4-(6-fluoro-1,2-benzoxazol)-1-piperidyl]butyl}-pyrido[1,2-c]pyrimidine-1,3-dione] yielded a half-life at 1 µM in series [1] of 3.2 min. Affinity at 5-HT2A receptors was put at a Ki of 0.02 ± 0.004 µM.
